From patent publication US20210369680A1, “METHODS OF TREATING DISEASES AND DISORDERS RESULTING FROM BETA CORONAVIRUS INFECTION” (T3D Therapeutics, Inc., priority 2020, published 2021)

How the values were obtained:
[1] = target: T1, human PPARα (Homo sapiens, UniProt Q07869); assay: Human PPAR activation, transient transfection study in transfected CV-1 cells; assay type: cell-based
T1 construct: expressed in transfected cells; host or cells: CV-1 cells
T1 sequence (Q07869 1-468): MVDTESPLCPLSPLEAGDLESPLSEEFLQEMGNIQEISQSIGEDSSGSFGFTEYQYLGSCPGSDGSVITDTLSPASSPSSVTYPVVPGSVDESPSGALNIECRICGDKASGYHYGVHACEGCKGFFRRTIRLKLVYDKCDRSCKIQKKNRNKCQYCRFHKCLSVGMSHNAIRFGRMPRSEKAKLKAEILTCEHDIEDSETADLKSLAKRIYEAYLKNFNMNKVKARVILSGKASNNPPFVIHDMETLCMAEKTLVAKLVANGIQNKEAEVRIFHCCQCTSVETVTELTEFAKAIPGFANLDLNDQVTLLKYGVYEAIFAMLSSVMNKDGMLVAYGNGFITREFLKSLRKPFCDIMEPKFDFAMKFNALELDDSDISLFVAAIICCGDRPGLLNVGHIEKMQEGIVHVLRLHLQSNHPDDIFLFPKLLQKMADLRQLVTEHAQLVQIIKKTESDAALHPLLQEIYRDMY
Text: (§1) Human PPAR Activation by Compound of Example 11 in Transient Transfection Study
(§2) Table 2 summarizes the results of studies performed in transfected CV-1 cells with three different lots of Compound of Example 11. […].

[2] = target: T2, human PPARγ (Homo sapiens, UniProt P37231); assay: as above; assay type: cell-based
T2 construct: expressed in transfected cells; host or cells: CV-1 cells
T2 sequence (P37231 1-505): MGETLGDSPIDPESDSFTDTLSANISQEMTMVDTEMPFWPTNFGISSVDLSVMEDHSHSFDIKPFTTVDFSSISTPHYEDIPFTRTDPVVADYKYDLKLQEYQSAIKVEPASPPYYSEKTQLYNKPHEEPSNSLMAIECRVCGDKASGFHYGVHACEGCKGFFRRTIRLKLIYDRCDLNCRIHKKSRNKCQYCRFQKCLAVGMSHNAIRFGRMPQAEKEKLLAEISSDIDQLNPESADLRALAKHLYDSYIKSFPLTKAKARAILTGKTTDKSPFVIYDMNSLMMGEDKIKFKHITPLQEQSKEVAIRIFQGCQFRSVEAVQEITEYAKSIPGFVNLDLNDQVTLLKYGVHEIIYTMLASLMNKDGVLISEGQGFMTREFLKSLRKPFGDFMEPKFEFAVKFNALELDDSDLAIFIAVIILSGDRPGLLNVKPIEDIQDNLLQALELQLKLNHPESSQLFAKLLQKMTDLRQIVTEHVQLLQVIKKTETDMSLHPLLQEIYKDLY
Text: as §1, §2

[3] = target: T3, human PPARδ (Homo sapiens, UniProt Q03181); assay: as above; assay type: cell-based
T3 construct: expressed in transfected cells; host or cells: CV-1 cells
T3 sequence (Q03181 1-441): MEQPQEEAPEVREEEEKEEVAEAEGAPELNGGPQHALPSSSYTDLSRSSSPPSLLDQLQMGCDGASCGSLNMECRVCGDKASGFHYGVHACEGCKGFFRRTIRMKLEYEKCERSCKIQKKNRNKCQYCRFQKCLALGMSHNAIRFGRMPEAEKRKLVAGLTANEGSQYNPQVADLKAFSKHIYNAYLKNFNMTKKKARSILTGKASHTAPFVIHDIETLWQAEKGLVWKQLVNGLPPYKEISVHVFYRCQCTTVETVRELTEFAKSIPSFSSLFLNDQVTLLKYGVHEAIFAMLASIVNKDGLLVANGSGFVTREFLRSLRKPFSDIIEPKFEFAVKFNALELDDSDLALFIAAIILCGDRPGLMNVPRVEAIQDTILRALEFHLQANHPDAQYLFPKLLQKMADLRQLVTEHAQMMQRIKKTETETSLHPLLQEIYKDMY

[4] = target: T4, P-glycoprotein (P-gp) (Homo sapiens, UniProt P08183); assay: Effect of P-gp inhibitor verapamil on Caco-2 permeability; assay type: in vitro ADME
T4 construct: endogenous in cells; host or cells: Caco-2 cells
T4 sequence (P08183 whole entry): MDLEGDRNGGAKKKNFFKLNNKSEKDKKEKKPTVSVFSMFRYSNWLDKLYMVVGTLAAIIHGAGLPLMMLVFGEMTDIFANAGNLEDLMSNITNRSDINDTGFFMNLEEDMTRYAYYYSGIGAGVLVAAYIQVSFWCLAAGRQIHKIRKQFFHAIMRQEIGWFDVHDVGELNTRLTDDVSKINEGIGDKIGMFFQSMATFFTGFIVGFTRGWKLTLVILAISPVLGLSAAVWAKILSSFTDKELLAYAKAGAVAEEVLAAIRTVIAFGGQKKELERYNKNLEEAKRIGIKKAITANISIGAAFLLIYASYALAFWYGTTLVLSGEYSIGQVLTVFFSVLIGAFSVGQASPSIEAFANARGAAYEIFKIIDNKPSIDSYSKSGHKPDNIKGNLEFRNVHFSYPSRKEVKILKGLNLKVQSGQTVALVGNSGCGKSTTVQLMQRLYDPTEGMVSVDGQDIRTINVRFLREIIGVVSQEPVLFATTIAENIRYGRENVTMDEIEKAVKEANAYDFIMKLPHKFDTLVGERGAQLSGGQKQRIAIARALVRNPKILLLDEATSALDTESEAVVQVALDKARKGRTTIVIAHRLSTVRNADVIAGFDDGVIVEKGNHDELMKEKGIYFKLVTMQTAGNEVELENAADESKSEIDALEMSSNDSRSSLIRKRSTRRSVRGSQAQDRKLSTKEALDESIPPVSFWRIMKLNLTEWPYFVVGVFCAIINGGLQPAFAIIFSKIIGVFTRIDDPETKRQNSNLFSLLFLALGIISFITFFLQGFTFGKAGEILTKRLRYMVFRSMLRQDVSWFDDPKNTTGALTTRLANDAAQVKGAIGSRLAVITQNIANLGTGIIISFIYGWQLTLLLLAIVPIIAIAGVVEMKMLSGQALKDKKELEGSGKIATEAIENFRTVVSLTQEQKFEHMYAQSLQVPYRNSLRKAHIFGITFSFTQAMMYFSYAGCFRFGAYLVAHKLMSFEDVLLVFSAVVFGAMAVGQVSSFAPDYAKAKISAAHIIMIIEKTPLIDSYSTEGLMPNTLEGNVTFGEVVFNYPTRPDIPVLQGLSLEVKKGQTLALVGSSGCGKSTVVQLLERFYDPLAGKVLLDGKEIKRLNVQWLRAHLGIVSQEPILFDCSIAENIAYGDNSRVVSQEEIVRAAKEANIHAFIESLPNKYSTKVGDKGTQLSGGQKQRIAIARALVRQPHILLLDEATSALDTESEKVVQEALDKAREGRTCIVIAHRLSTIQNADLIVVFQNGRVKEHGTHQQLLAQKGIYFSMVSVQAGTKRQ
Text: Example 18: Effect of P-gp Inhibitor Verapamil on Caco-2 Permeability of Compound of Example 11

[5] = FDG-PET relative cerebral metabolic rate for glucose, clinical study; assay type: in vivo, human; conditions: for R CMRgl change (EOT-BL) relative to average Whole Brain: combined dose groups
Text: FDG-PET Data from Clinical Study with Compound of Example 11
FDG-PET scans were obtained at three clinical sites.
Increases and decreases in relative regional glucose metabolism (A R CMRgl (EOT-BL)) were observed over the treatment period.

CCc1oc(-c2ccc(OC)cc2)nc1CCOc1ccc2c(c1)CC[C@H]2CC(=O)[O-].[Na+] [Example 11, Sodium (S)-2-(5-(2-(5-ethyl-2-(4-methoxyphenyl)oxazol-4-yl)ethoxy)-2,3-dihydro-1H-inden-1-yl)acetate]
Peak effect PPARα [1]: 1.87
Emax ([1]; CV-1, average of three lots, read-out: Average % maximal response PPARα): 49%
Average % maximal response PPARα ([1]; average of three lots): significantly reduced
Peak effect PPARγ [2]: 29.49
Emax ([2]; CV-1, read-out: Average % maximal response PPARγ): 74%
Peak effect PPARδ [3]: 17.68
greater potency in activating human PPARδ over human PPARγ [3]: 15 fold
selectivity over the human PPAR alpha subtype [3]: ~30 fold
Emax ([3]; CV-1, read-out: Average % maximal response PPARδ): 76%
substrate for P-gp [4]: not a substrate
spatial extent of ROSDs with positive R CMRgl change (p<0.005) ([5]; 10 mg): 70 voxels
spatial extent of ROSDs with positive R CMRgl change (p<0.005) ([5]; 90 mg): 2136 voxels
R CMRgl change (EOT-BL) relative to average Whole Brain ([5]; Cingulum Ant L): 0.03 ± 0.04
R CMRgl change (EOT-BL) relative to average Whole Brain ([5]; Cingulum Ant R): 0.02 ± 0.05
R CMRgl change (EOT-BL) relative to average Whole Brain ([5]; Cingulum Ant intersection L): 0.04 ± 0.05
R CMRgl change (EOT-BL) relative to average Whole Brain ([5]; Cingulum Ant intersection R): 0.03 ± 0.04
R CMRgl change (EOT-BL) relative to average Whole Brain ([5]; Insula L): 0.02 ± 0.03
R CMRgl change (EOT-BL) relative to average Whole Brain ([5]; Insula R): 0.02 ± 0.04
R CMRgl change (EOT-BL) relative to average Whole Brain ([5]; Insula intersection L): 0.03 ± 0.03
R CMRgl change (EOT-BL) relative to average Whole Brain ([5]; Insula intersection R): 0.03 ± 0.04
R CMRgl change (EOT-BL) relative to average Whole Brain ([5]; Orbital front intersection L): 0.03 ± 0.04
R CMRgl change (EOT-BL) relative to average Whole Brain ([5]; Orbital front intersection R): 0.03 ± 0.03
R CMRgl change (EOT-BL) relative to average Whole Brain ([5]; Putamen L): 0.05 ± 0.07
R CMRgl change (EOT-BL) relative to average Whole Brain ([5]; Putamen R): 0.05 ± 0.06
R CMRgl change (EOT-BL) relative to average Whole Brain ([5]; Putamen intersection L): 0.06 ± 0.06
R CMRgl change (EOT-BL) relative to average Whole Brain ([5]; Putamen intersection R): 0.06 ± 0.06
